Some results are limits rather than exact numbers.

The subject of this experiment is Human immunodeficiency virus 1. The experiment can be described thus: Compound was tested for inhibition of HIV-1. It is filed as functional, organism-based.
The term IC50 denotes the concentration needed to halve the response being measured. Read a high IC50 as a need for much substance. For the molecule `Nc1ncnc2c1ncn2C=C=CCO` (stereo in doubt; 1a), the IC50 was 14 µM.

On to `Nc1ncnc2c1ncn2C=C=CCO` (stereo in doubt; 3), for which the IC50 was > 200 µM.

Molecule `Nc1ncnc2c1ncn2C=C=CCO` (stereo in doubt; 2) yielded an IC50 of 5.8 µM.

For the origin of these results see ChEMBL document CHEMBL1126199, “(R)-(-)- and (S)-(+)-adenallene: synthesis, absolute configuration, enantioselectivity of antiretroviral effect, and enzymic deamination” (J Med Chem, 1992).
